These results are taken from ChEMBL document CHEMBL1129586, “Estrogenic triarylethylene acetic acids: effect of structural variation on estrogen receptor affinity and estrogenic potency and efficacy in MCF-7 cells” (J Med Chem, 1996).

The source made the active and inactive calls. The rule behind the calls is not given here.

Assay [1] concerns MCF7. Briefly: Inhibition of MCF-7 cell proliferation. It counts as functional. The following applies: Homo sapiens.
The target of another assay is Estrogen receptor (Rattus norvegicus, UniProt P06211+Q62986).
The test system of assay [2] is MCF7. The assay is described as follows: cells. The following applies: Homo sapiens.
For assay [3], the system named is MCF7. The assay is described as follows: cells. Particulars: Homo sapiens. The source holds these as a separate data set.
Description: Stimulation of MCF-7 cell proliferation
In assay [4] the test system is MCF7. The assay is described as follows: Inhibition of MCF-7 cell proliferation; h=No inhibitory effect. The class given is functional, cell-based. The following applies: Homo sapiens.

The term IC30 denotes the point of the concentration-response curve where the effect stands at 30%. As a reminder, the IC50 is the point on the concentration scale where inhibition reaches its midpoint. A low value points to inhibition by little substance. For orientation: EC50 means the midpoint of the concentration-response curve. Lower therefore signals higher potency in that assay. As to `CC/C(=C(\c1ccc(C)cc1)c1ccc(OCC(=O)O)cc1)c1ccccc1`, it took 13 nM to reach the 30% level in the assay on MCF7 [1] (IC30). For the same compound, the half-maximal inhibitory concentration (IC50) on Estrogen receptor was found to be 1060 nM; in the assay with MCF7 [2], 97 nM. The compound further displayed an EC50 in the assay on MCF7 [3] of 350 nM.

In turn, `CC/C(=C(\c1ccc(O)cc1)c1ccc(OCC(=O)O)cc1)c1ccccc1` came in with a concentration for an effect of 30% (IC30) in the assay on MCF7 [1] of 30 nM. Further, the IC50 against Estrogen receptor stood at 9 nM; with MCF7 [2], 21 nM. In the assay on MCF7 [3], this compound showed an EC50 of 5.3 nM.

Consider `CCC(=C(c1ccc(O)cc1)c1ccc(O)cc1)c1ccc(OCC(=O)O)cc1`, for which the IC30 entry with MCF7 [4] was “inactive”. For the same compound, the results for the IC50 on Estrogen receptor and with MCF7 [2] were 750 nM and 2390 nM, respectively. In the assay on MCF7 [3], this compound registered an EC50 of 46 nM.

`CC/C(=C(\c1ccccc1)c1ccc(OCC(=O)O)cc1)c1ccccc1` yielded an IC30 with MCF7 [1] of 20 nM. For the same compound, the IC50 turned out to be 4500 nM against Estrogen receptor and 320 nM with MCF7 [2]. Also, the EC50 with MCF7 [3] was 300 nM.

On to `O=C(O)COc1ccc(C(Cc2ccccc2)c2ccc(O)cc2)cc1` (centres undefined), for which the IC30 result in the assay on MCF7 [4] is “inactive”. Besides, the figures for the IC50 against Estrogen receptor and in the assay with MCF7 [2] were 900 nM and 600 nM, respectively. In the assay on MCF7 [3], this compound had an EC50 of 16 nM.

Take `CC/C(=C(\c1ccc(O)cc1)c1ccc(CC(=O)O)cc1)c1ccccc1`: in the assay with MCF7 [1], the IC30 was determined as 2.5 nM. Moreover, the IC50 on Estrogen receptor is 450 nM; in the assay with MCF7 [2] it was 58 nM. The compound further displayed a concentration for a half-maximal effect (EC50) in the assay on MCF7 [3] of 42 nM.
